# In patent US10251395B2, “Substituted furano-/thienocycloalkylamino-2-pyrimidine derivatives and use thereof for controlling undesired plant growth” (Bayer CropScience Aktiengesellschaft, priority 2015, dated 2019):
# How the values were obtained:
# Type in all cases: in vivo
# [1] = test system: Viola tricolor; assay: Pre-emergence herbicidal effect; conditions: scored visually after 3 weeks
# From the text: (§1) Seeds of monocotyledonous and dicotyledonous weed plants and crop plants are laid out in wood-fiber pots in sandy loam and covered with soil. The compounds of the invention, formulated in the form of wettable powders (WP) or as emulsion concentrates (EC), are then applied to the surface of the covering soil as aqueous suspension or emulsion at a water application rate equating to 600 to 800 L/ha with addition of 0.2% wetting agent.
# (§2) After the treatment, the pots are placed in a greenhouse and kept under good growth conditions for the trial plants. The damage to the test plants is scored visually after a test period of 3 weeks by comparison with untreated controls (herbicidal activity in percent (%): 100% activity=the plants have died, 0% activity=like control plants).
# (§3) • ABUTH: Abutilon theophrasti ALOMY: Alopecurus myosuroides • AMARE: Amaranthus retroflexus AVEFA: Avena fatua • CYPES: Cyperus esculentus ECHCG: Echinochloa crus-galli • LOLMU: Lolium multiflorum MATIN: Matricaria inodora • PHBPU: Ipomoea purpurea POLCO: Polygonum convolvulus • SETVI: Setaria viridis STEME: Stellaria media • VERPE: Veronica persica VIOTR: Viola tricolor
# [2] = test system: Setaria viridis; assay: Pre-emergence herbicidal effect; conditions: scored visually after 3 weeks
# From the text: as §1, §2, §3
# [3] = test system: Echinochloa crus-galli; assay: Pre-emergence herbicidal effect; conditions: Dosage 320 g/ha, scored visually after 3 weeks
# From the text: as §1, §2, §3
# [4] = test system: Stellaria media; assay: Pre-emergence herbicidal effect; conditions: scored visually after 3 weeks
# From the text: as §1, §2, §3
# [5] = test system: Matricaria inodora; assay: Pre-emergence herbicidal effect; conditions: scored visually after 3 weeks
# From the text: as §1, §2, §3
# [6] = test system: Polygonum convolvulus; assay: Pre-emergence herbicidal effect; conditions: scored visually after 3 weeks
# From the text: as §1, §2, §3
# [7] = test system: Veronica persica; assay: Pre-emergence herbicidal effect; conditions: scored visually after 3 weeks
# From the text: as §1, §2, §3
# [8] = test system: Lolium multiflorum; assay: Pre-emergence herbicidal effect; conditions: Dosage 320 g/ha, scored visually after 3 weeks
# From the text: as §1, §2, §3
# [9] = test system: Amaranthus retroflexus; assay: Pre-emergence herbicidal effect; conditions: scored visually after 3 weeks
# From the text: as §1, §2, §3
# [10] = test system: Viola tricolor; assay: Post-emergence herbicidal effect; conditions: assessed visually after about 3 weeks vs untreated controls
# From the text: (§4) • ABUTH: Abutilon theophrasti ALOMY: Alopecurus myosuroides • AMARE: Amaranthus retroflexus AVEFA: Avena fatua • CYPES: Cyperus esculentus ECHCG: Echinochloa crus-galli • LOLMU: Lolium multiflorum MATIN: Matricaria inodora • PHBPU: Ipomoea purpurea POLCO: Polygonum convolvulus • SETVI: Setaria viridis STEME: Stellaria media • VERPE: Veronica persica VIOTR: Viola tricolor Seeds of monocotyledonous and dicotyledonous weed and crop plants are laid out in sandy loam in wood-fiber pots, covered with soil and cultivated in a greenhouse under good growth conditions. 2 to 3 weeks after sowing, the test plants are treated at the one-leaf stage. The compounds of the invention, formulated in the form of wettable powders (WP) or as emulsion concentrates (EC), are then sprayed onto the green parts of the plants as aqueous suspension or emulsion at a water application rate equating to 600 to 800 L/ha with addition of 0.2% wetting agent. After the test plants have been left to stand in the greenhouse under optimal growth conditions for about 3 weeks, the action of the preparations is assessed visually in comparison to untreated controls (herbicidal action in percent (%): 100% activity=the plants have died, 0% activity=like control plants).
# [11] = test system: Echinochloa crus-galli; assay: Post-emergence herbicidal effect; conditions: 320 g/ha, assessed visually after about 3 weeks vs untreated controls
# From the text: as §4
# [12] = test system: Stellaria media; assay: Post-emergence herbicidal effect; conditions: assessed visually after about 3 weeks vs untreated controls
# From the text: as §4
# [13] = test system: Amaranthus retroflexus; assay: Post-emergence herbicidal effect; conditions: assessed visually after about 3 weeks vs untreated controls
# From the text: as §4
# [14] = test system: Alopecurus myosuroides; assay: Pre-emergence herbicidal effect; conditions: scored visually after 3 weeks
# From the text: as §1, §2, §3
# [15] = test system: Setaria viridis; assay: Post-emergence herbicidal effect; conditions: assessed visually after about 3 weeks vs untreated controls
# From the text: as §4
# [16] = test system: Ipomoea purpurea; assay: Post-emergence herbicidal effect; conditions: assessed visually after about 3 weeks vs untreated controls
# From the text: as §4
# [17] = test system: Veronica persica; assay: Post-emergence herbicidal effect; conditions: 320 g/ha, assessed visually after about 3 weeks vs untreated controls
# From the text: as §4
# [18] = test system: Abutilon theophrasti; assay: Post-emergence herbicidal effect; conditions: assessed visually after about 3 weeks vs untreated controls
# From the text: as §4
# [19] = test system: Matricaria inodora; assay: Post-emergence herbicidal effect; conditions: 320 g/ha, assessed visually after about 3 weeks vs untreated controls
# From the text: as §4
Compound,VIOTR pre-emergence efficacy (herbicidal activity) ([1]; Dosage 80 g/ha) [%],VIOTR pre-emergence efficacy (herbicidal activity) ([1]; Dosage 320 g/ha) [%],SETVI pre-emergence efficacy (herbicidal activity) ([2]; Dosage 80 g/ha) [%],SETVI pre-emergence efficacy (herbicidal activity) ([2]; Dosage 320 g/ha) [%],ECHCG pre-emergence efficacy (herbicidal activity) [3] [%],STEME pre-emergence efficacy (herbicidal activity) ([4]; Dosage 80 g/ha) [%],STEME pre-emergence efficacy (herbicidal activity) ([4]; Dosage 320 g/ha) [%],MATIN pre-emergence efficacy (herbicidal activity) ([5]; Dosage 80 g/ha) [%],MATIN pre-emergence efficacy (herbicidal activity) ([5]; Dosage 320 g/ha) [%],POLCO pre-emergence efficacy (herbicidal activity) ([6]; Dosage 320 g/ha) [%],VERPE pre-emergence efficacy (herbicidal activity) ([7]; Dosage 80 g/ha) [%],VERPE pre-emergence efficacy (herbicidal activity) ([7]; Dosage 320 g/ha) [%],LOLMU pre-emergence efficacy (herbicidal activity) [8] [%],AMARE pre-emergence efficacy (herbicidal activity) ([9]; Dosage 320 g/ha) [%],post-emergence efficacy VIOTR ([10]; 320 g/ha) [%],post-emergence efficacy STEME ([12]; 80 g/ha) [%],post-emergence efficacy STEME ([12]; 320 g/ha) [%],post-emergence efficacy VIOTR ([10]; 80 g/ha) [%],post-emergence efficacy SETVI ([15]; 320 g/ha) [%],post-emergence efficacy VERPE [17] [%],other results
Nc1nc(NC2CCCc3sccc32)ncc1C(F)(F)F (racemic) [compound 70],100,100,100,100,100,100,100,100,100,100,90,100,100,100,100,100,100,–,–,–,AMARE pre-emergence efficacy (herbicidal activity) ([9]; Dosage 80 g/ha): 100%; post-emergence efficacy ECHCG [11]: 80%; post-emergence efficacy AMARE ([13]; 80 g/ha): 40%; post-emergence efficacy AMARE ([13]; 320 g/ha): 100%
C=C(c1cnc(NC2CCCc3sc(C)cc32)nc1N)C(F)(F)F (racemic) [compound 275],100,100,90,100,100,100,100,90,100,70,100,100,60,100,90,90,90,70,80,90,ALOMY pre-emergence efficacy (herbicidal activity) ([14]; Dosage 80 g/ha): 80%; ALOMY pre-emergence efficacy (herbicidal activity) ([14]; Dosage 320 g/ha): 80%; AMARE pre-emergence efficacy (herbicidal activity) ([9]; Dosage 80 g/ha): 70%; post-emergence efficacy SETVI ([15]; 80 g/ha): 70%; post-emergence efficacy PHBPU ([16]; 320 g/ha): 70%; post-emergence efficacy ABUTH ([18]; 80 g/ha): 80%; post-emergence efficacy ABUTH ([18]; 320 g/ha): 90%
CCOC(=O)c1cnc(NC2CCCc3sc(C)cc32)nc1N (racemic) [compound 293],–,100,–,100,80,100,100,70,100,–,–,100,60,100,90,80,100,70,–,90,ALOMY pre-emergence efficacy (herbicidal activity) ([14]; Dosage 320 g/ha): 70%; post-emergence efficacy PHBPU ([16]; 80 g/ha): 80%; post-emergence efficacy PHBPU ([16]; 320 g/ha): 90%
Cc1cc2c(s1)CCCC2Nc1ncc(-c2ccccc2)c(N)n1 (racemic) [compound 296],60,100,70,100,–,–,90,90,100,–,100,100,–,–,80,–,–,70,70,90,post-emergence efficacy SETVI ([15]; 80 g/ha): 40%; post-emergence efficacy MATIN [19]: 60%; post-emergence efficacy ABUTH ([18]; 320 g/ha): 70%; post-emergence efficacy AMARE ([13]; 80 g/ha): 60%; post-emergence efficacy AMARE ([13]; 320 g/ha): 90%
CN=C(C)c1cnc(NC2CCCc3sc(C)cc32)nc1N (stereo not shown) [compound 352],80,100,–,100,–,100,100,90,90,60,100,100,60,100,90,–,–,80,80,100,POLCO pre-emergence efficacy (herbicidal activity) ([6]; Dosage 80 g/ha): 60%; post-emergence efficacy ABUTH ([18]; 80 g/ha): 80%; post-emergence efficacy ABUTH ([18]; 320 g/ha): 90%
